Data taken from patent publication US20140187556A1, “ANTI-AMYLOID COMPOUNDS AND METHODS” (Treventis Corporation, priority 2011, published 2014).
Where two headings read alike, the source gives them in different places.

How the values were obtained:
[1] = biological target: T1, Aβ40 (Homo sapiens, UniProt P05067); experiment: Thioflavin T (ThT) Aβ aggregation assay; type: biochemical; conditions: 20 μM Aβ40, 37 degrees C
T1 construct: pre-treated Aβ40 (40 μM in 20 mM Tris, pH 7.4)
Summary of the method: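 Aβ40 was HFIP-pretreated to remove preformed aggregates; 20 µM Aβ40 incubated with compound and 4 µM ThT in 20 mM Tris pH 7.4, 150 mM NaCl, 1% DMSO at 37 °C. Fluorescence (ex 450/em 480 nm) read every 15 min after shaking; inhibition judged by attenuated fluorescence rise versus DMSO controls.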

[2] = biological target: Tau441 (Homo sapiens, UniProt P10636); experiment: Thioflavin S (ThS) tau aggregation assay; type: biochemical; conditions: 20 μM, FIG. 1
Tau441, sequence (P10636 1-441 isoform P10636-8): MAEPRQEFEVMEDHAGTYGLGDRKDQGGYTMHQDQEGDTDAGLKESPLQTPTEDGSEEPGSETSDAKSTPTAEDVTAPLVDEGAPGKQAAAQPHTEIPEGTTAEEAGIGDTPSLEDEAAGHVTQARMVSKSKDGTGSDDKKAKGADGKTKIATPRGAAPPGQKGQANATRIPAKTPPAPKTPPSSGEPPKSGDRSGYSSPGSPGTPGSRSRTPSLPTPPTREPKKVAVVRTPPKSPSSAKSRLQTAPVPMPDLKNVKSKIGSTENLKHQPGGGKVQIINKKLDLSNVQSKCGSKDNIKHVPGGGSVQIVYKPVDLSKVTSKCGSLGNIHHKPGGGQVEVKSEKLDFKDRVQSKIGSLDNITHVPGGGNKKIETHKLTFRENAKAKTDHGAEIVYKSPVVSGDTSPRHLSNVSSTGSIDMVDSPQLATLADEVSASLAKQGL
Method: Analogous to the method of Example 1, the ability of compounds to inhibit the aggregation of tau was performed by substituting […] with tau and Thioflavin T with Thioflavin S.

[3] = biological target: alpha-synuclein (Homo sapiens, UniProt P37840); experiment: alpha-synuclein aggregation assay (ThT, analogous to Example 1); type: biochemical; conditions: 10 μM compound
Method: Analogous to the method of Example 1, the ability of compounds to inhibit the aggregation of alpha-synuclein was performed by substituting Aβ with alpha-synuclein.

[4] = In vivo blood and brain exposure and brain/plasma ratio in ICR mice; conditions: male ICR mice
Method: TRV 1140 was formulated in 3% N-methyl-2-pyrrolidone, 0.5% Cremaphor, 50% olive oil in water. The compound was formulated at a concentration of 2 mg/mL and dosed in a volume of 10 mL/kg to produce a dose of 20 mg/kg. The formulation was an emulsion. Compound was formulated fresh daily. Mice were dosed once daily for three days. Male ICR mice (S.A. Ace Animals; Boyertown, Pa.) were used for this experiment. Animals were group housed and kept on a standard 12 hr light cycle. Food and water were available ad libitum. On the third day mice were dosed with compound. At the designated time after 20 mg/kg dosing (30 min, 2 hrs, 4 hrs), whole blood was collected via the retro-orbital sinus in heparanized tubes and mixed with deionized water at a 1:1 ratio for hemolyzation. Hemolyzed blood was analyzed for levels of test agent. Blood samples were extracted by a standard protocol known in the art. At designated time points, mice were sacrificed. Brains were removed, weighed, and processed. Brains were homogenized and test agent extracted with an acetonitrile homogenization method (1 mL acetonitrile: 1 g brain). Supernatant samples were stored at −80° C. for subsequent analysis of brain levels of test compound. Brain levels of test agent were analyzed by LC/MS/MS.

[5] = system: 5xFAD mouse; experiment: In vivo efficacy trial in the 5xFAD transgenic AD mouse model; conditions: wildtype littermate mice
From the text: The 5xFAD mouse (B6SJL-Tg(SwFLon,PSEN1*M 146L*L286V)6799Vas/J; JAX #006554) overexpresses human APP(695) with the Swedish (K670N,M671L), Florida (I716V) and London (V717I) familial AD (FAD) mutations, as well as human presenilin 1 (PSI) with two FAD mutations (M 146L and L286V). These five mutations act additively, leading to large and rapid age-related increases in neuronal Aβ-40 and Aβ-42 peptides beginning at 2 months of age. […] Extra-cellular Aβ plaques are first observed in the hippocampus, subiculum, frontal cortex and spinal cord at 2-3 months of age and increase with age. No neurofibrillary tangles (tau) are observed in the brains of 5xFAD mice. […] Active astrocytes are commonly found surrounding β-amyloid plaques and levels of the pre-synaptic marker synaptophysin are decreased, indicating a decrease in synaptic connectivity to the 5xFAD mouse (Oakley et al., 2006). […] Age-related cognitive impairment in visuo-spatial working memory in the Y-maze occurs at 4-5 months of age. […]
The general procedure for an in vivo efficacy trial with 5xFAD mice is as follows. […] After behavioral testing, mice are sacrificed and their blood and brains assessed for Aβ levels.

T1 sequence (P05067 672-711 limits assumed): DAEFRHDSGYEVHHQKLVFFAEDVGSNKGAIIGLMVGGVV

**Q.** For `O=[N+]([O-])c1ccc(-c2cccc(C(O)C(F)(F)F)c2)cc1NCc1ccccc1` (centres unmarked) [TRV 1140, 1-(3′-(benzylamino)-4′-nitro-[1,1′-biphenyl]-3-yl)-2,2,2-trifluoroethanol], which IC50 [1] is on record?
**A.** 3.09 ± 0.21 µM

**Q.** And the “relative potency in tau aggregation assay (lower fluorescence is better)” value [2]?
**A.** Most potent

**Q.** And the “inhibition of alpha-synuclein aggregation” value [3]?
**A.** inhibit alpha-synuclein aggregation at 10 μM

**Q.** What about the brain penetrance ([4]; 20 mg/kg) of the same compound?
**A.** highly brain penetrable

**Q.** And the “time of maximum concentration (blood and brain)” value ([4]; 20 mg/kg once daily, third day)?
**A.** 4 h

**Q.** What about the “total drug exposure in blood” value ([4]; 20 mg/kg once daily, third day, 0-4 hr) of the same compound?
**A.** 450 ng·h/mL

**Q.** What about the “total drug exposure in brain” value ([4]; 20 mg/kg once daily, third day, 0-4 hr, mean of two samples) of the same compound?
**A.** 694 ng·h/mL

**Q.** And the Kp ([4]; mouse, brain / plasma (method describes hemolyzed whole blood), 20 mg/kg once daily, third day)?
**A.** 1.54

**Q.** What about the Cmax ([4]; mouse, brain, 20 mg/kg once daily, third day, read-out: Maximum concentration (Cmax) in brain) of the same compound?
**A.** 238 ng/mL

**Q.** What about the Cmax ([4]; mouse, whole blood, 20 mg/kg once daily, third day, read-out: Maximum concentration (Cmax) in blood) of the same compound?
**A.** 87.5 ng/mL

**Q.** What about the “behavioural performance, WT with compound versus WT with vehicle” value [5] of the same compound?
**A.** no difference in behavioural performance
